From ChEMBL document CHEMBL5291721, “A preclinical secondary pharmacology resource illuminates target-adverse drug reaction associations of marketed drugs” (Nat Commun, 2023)

Experiments:
[1] = target: T1, Gamma-aminobutyric acid receptor subunit alpha-1/alpha-2/beta-2/gamma-2 (Homo sapiens, UniProt P14867+P18507+P47869+P47870); assay type: protein-complex assay
D(1A) dopamine receptor = D(1A) dopamine receptor (Homo sapiens, UniProt P21728); assay type: functional, cell-based
[2] = target: T1, Gamma-aminobutyric acid receptor subunit alpha-1/alpha-2/beta-2/gamma-2; assay type: functional, cell-based
Glucocorticoid receptor = target: T2, Glucocorticoid receptor (Homo sapiens, UniProt P04150); assay type: functional
T2 sequence (P04150 whole entry): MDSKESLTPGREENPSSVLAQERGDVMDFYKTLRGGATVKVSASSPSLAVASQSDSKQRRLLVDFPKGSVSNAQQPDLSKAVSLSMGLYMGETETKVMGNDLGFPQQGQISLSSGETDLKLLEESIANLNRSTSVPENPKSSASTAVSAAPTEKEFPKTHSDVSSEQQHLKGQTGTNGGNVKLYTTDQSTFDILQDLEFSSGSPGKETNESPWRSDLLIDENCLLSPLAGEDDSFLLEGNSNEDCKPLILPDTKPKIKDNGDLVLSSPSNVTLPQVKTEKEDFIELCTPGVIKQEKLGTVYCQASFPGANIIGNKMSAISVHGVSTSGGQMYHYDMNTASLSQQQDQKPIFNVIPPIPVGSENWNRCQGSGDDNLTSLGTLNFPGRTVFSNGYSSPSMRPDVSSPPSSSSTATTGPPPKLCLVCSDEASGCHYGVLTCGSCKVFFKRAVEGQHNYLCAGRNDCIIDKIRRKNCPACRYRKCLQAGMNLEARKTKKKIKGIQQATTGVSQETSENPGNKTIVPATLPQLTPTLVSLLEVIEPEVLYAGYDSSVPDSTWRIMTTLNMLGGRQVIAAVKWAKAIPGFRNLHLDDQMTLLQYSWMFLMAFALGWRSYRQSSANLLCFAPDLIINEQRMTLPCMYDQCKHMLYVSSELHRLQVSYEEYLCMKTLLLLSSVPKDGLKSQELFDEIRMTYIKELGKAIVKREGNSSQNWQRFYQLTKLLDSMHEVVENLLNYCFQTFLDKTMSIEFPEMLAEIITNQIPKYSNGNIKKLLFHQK

[3] = target: T3, Endothelin receptor type B (Homo sapiens, UniProt P24530)
T3 sequence (P24530 whole entry): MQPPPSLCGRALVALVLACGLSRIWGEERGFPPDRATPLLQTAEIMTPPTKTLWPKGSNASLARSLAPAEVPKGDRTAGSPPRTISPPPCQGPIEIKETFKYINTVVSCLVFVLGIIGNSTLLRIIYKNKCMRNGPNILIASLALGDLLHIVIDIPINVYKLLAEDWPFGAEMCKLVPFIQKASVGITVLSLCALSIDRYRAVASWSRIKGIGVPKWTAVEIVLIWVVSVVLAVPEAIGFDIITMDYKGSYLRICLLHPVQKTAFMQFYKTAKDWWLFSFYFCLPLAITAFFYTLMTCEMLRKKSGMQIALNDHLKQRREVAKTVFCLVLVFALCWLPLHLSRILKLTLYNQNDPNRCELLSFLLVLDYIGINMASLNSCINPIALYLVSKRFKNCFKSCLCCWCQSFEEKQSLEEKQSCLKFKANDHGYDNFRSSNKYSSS

[4] = target: T4, Gastric inhibitory polypeptide receptor (Homo sapiens, UniProt P48546)
T4 sequence (P48546 whole entry): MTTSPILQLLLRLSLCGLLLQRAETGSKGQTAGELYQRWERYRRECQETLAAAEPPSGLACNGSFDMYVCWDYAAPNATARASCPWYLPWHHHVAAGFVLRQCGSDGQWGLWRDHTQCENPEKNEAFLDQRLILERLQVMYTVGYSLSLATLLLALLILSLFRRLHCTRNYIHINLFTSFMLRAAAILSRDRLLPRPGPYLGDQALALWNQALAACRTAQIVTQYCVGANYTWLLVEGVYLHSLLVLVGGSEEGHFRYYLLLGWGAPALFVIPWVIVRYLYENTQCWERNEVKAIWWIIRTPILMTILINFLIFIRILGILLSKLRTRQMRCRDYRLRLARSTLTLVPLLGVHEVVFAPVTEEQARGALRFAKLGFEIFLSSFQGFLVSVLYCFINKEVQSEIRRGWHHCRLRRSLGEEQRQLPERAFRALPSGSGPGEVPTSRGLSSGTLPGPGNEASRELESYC

Histamine H2 receptor = Histamine H2 receptor (Homo sapiens, UniProt P25021)
[5] = target: Vascular endothelial growth factor receptor 2 (Homo sapiens, UniProt P35968); assay type: functional
Estrogen receptor = target: T5, Estrogen receptor (Homo sapiens, UniProt P03372); assay type: functional
T5 sequence (P03372 whole entry): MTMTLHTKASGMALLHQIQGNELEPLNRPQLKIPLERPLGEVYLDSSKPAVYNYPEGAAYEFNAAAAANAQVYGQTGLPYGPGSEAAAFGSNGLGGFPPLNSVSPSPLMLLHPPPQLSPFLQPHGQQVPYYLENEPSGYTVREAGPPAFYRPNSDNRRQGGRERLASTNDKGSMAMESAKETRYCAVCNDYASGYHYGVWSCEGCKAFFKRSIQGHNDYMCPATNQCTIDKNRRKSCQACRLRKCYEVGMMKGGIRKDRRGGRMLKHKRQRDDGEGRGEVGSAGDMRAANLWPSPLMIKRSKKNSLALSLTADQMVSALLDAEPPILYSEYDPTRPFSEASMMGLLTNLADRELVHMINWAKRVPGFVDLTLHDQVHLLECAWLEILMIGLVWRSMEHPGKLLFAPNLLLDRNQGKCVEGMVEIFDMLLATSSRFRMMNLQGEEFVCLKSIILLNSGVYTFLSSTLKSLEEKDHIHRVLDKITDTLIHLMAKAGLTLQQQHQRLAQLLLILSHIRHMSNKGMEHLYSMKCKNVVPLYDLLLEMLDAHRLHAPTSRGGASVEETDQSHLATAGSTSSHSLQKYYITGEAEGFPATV
Also: assay procedure not described here.

Sequence of D(1A) dopamine receptor (P21728 whole entry): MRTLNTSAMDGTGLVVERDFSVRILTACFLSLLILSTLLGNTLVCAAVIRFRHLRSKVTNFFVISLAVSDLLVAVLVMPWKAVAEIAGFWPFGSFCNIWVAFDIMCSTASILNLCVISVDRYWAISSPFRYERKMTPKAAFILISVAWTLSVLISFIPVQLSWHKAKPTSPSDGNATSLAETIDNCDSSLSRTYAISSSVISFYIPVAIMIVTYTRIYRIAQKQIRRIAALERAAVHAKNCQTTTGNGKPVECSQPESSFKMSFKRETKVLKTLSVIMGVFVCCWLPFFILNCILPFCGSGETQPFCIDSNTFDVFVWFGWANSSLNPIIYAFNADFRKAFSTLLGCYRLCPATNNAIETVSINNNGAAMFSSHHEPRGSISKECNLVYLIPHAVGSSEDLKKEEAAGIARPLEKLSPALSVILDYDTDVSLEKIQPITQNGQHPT
Sequence of Histamine H2 receptor (P25021 whole entry): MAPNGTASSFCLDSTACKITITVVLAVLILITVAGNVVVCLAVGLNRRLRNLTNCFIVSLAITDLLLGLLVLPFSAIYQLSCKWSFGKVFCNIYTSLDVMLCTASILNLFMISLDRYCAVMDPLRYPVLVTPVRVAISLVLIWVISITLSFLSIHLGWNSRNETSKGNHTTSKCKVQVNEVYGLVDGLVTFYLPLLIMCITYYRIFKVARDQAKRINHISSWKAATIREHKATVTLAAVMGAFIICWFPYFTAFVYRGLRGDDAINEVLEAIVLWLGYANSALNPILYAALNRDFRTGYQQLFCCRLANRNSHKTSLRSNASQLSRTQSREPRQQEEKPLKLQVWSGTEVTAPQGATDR
Sequence of Vascular endothelial growth factor receptor 2 (P35968 whole entry): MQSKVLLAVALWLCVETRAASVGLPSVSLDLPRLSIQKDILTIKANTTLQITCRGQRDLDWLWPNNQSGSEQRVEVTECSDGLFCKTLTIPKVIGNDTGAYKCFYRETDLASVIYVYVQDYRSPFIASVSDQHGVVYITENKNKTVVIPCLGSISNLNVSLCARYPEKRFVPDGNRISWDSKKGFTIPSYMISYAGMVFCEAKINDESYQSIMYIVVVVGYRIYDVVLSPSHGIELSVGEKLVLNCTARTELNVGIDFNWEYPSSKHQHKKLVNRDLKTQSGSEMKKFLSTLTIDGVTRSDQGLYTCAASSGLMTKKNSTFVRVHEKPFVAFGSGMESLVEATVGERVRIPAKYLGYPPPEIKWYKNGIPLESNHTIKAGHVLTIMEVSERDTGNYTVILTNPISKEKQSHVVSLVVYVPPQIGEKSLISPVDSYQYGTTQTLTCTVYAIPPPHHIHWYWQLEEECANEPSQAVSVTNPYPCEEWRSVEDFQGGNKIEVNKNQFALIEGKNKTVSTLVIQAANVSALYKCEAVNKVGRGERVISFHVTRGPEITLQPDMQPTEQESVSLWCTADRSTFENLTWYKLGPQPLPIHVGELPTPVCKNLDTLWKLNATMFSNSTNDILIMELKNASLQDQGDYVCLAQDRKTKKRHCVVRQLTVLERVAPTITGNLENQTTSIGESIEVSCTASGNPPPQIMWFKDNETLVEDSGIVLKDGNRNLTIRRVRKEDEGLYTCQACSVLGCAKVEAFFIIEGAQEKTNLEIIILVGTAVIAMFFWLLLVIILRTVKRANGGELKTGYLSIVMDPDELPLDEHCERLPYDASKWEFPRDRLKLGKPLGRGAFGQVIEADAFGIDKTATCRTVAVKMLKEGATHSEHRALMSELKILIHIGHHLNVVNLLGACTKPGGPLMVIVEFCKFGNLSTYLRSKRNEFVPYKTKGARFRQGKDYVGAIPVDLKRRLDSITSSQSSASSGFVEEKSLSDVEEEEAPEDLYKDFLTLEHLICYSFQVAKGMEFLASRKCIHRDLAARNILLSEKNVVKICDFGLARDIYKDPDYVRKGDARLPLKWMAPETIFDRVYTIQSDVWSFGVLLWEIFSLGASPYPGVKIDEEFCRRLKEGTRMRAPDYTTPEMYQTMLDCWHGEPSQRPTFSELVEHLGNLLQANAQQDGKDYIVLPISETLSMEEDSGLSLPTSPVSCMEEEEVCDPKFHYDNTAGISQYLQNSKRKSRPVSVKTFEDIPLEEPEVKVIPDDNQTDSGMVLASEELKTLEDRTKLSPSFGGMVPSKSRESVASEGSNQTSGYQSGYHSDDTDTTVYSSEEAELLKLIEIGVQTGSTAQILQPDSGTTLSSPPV
T1 sequence (P14867 whole entry): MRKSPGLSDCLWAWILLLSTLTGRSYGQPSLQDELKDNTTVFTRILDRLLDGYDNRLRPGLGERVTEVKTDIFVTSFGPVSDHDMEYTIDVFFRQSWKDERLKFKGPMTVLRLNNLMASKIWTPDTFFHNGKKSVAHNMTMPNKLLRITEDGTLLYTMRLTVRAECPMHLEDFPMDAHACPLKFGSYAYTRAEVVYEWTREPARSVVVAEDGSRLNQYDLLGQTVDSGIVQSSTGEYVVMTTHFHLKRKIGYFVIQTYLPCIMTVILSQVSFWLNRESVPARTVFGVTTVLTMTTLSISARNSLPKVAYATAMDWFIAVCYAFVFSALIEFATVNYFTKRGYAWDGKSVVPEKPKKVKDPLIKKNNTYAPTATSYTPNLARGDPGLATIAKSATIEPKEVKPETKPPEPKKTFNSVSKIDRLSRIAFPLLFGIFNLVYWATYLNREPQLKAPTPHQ
T1 sequence (P47870 whole entry): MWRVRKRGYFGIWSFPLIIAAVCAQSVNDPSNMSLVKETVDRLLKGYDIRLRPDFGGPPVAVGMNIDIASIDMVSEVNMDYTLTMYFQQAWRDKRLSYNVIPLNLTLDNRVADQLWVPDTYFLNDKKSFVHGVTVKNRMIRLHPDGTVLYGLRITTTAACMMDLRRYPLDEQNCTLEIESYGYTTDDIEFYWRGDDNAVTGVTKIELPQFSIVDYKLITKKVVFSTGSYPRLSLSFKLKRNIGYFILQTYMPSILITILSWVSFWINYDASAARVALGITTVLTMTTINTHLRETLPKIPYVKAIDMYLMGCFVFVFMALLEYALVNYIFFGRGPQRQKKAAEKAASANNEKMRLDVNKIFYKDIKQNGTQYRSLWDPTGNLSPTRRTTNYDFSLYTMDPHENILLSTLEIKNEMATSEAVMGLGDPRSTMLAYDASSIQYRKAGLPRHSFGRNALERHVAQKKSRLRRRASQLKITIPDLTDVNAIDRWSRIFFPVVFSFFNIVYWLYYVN
T1 sequence (P18507 whole entry): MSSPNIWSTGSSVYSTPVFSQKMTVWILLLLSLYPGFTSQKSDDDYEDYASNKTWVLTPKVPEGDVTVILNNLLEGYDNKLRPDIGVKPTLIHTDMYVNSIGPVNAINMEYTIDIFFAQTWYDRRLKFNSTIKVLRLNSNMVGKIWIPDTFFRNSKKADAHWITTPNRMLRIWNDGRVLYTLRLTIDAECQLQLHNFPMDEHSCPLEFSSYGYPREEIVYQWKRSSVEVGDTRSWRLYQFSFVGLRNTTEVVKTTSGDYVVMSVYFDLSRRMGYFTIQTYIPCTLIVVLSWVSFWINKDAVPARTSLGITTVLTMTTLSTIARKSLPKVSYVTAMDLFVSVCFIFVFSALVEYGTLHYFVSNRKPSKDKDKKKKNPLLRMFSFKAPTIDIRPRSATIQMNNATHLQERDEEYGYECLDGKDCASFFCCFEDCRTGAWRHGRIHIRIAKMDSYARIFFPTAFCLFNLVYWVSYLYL
T1 sequence (P47869 whole entry): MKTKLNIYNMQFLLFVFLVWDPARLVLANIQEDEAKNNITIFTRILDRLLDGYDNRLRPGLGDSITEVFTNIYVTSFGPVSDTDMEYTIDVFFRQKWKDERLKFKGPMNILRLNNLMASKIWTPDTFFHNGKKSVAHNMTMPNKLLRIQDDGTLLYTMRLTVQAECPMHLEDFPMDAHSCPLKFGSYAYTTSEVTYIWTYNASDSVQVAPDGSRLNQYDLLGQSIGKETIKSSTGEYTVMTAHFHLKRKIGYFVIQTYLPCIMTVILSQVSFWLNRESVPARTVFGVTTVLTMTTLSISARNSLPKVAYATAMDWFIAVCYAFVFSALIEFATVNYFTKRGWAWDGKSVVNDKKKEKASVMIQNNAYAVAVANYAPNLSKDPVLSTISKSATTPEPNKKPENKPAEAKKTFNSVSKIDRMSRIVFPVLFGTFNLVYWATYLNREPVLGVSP

| Compound | AC50 [1] [µM] | AC50 [3] [µM] | AC50 [4] [µM] | AC50 (Histamine H2 receptor) [µM] | further results |
| --- | --- | --- | --- | --- | --- |
| CC(C)(S)[C@@H](N)C(=O)O [PENICILLAMINE] | > 30 |  |  |  |  |
| Oc1c(Cl)cc(Cl)c2cccnc12 [CHLOROXINE] | > 30 |  |  |  |  |
| C=CCc1ccccc1OCC(O)CNC(C)C (stereo unspecified) [ALPRENOLOL] | > 0.3 |  |  |  |  |
| CNC(=O)c1ccccc1Sc1ccc2c(/C=C/c3ccccn3)n[nH]c2c1 [AXITINIB] |  |  |  |  | AC50 (D(1A) dopamine receptor): > 30 µM; AC50 [2]: > 30 µM; AC50 (Glucocorticoid receptor): > 10 µM |
| CC(=O)Nc1ccc(O)cc1 [ACETAMINOPHEN] | > 30 |  |  |  | AC50 [2]: > 30 µM |
| CCOC(=O)[C@H](CCc1ccccc1)N[C@@H](C)C(=O)N1[C@H](C(=O)O)C[C@H]2CCCC[C@@H]21 [TRANDOLAPRIL] | > 30 |  |  |  |  |
| N[C@H](C(=O)O)[C@H](O)c1ccc(O)c(O)c1 [DROXIDOPA] | > 30 |  |  |  |  |
| Nc1nc(NC2CC2)c2ncn([C@H]3C=C[C@@H](CO)C3)c2n1 [ABACAVIR] |  |  |  |  | AC50 [2]: > 30 µM |
| NCC(CC(=O)O)c1ccc(Cl)cc1 (stereo unspecified) [BACLOFEN] | > 30 | > 30 | > 30 | > 10 | AC50 (D(1A) dopamine receptor): > 30 µM; AC50 [2]: > 30 µM; AC50 (Glucocorticoid receptor): > 30 µM; AC50 [5]: > 30 µM |
| Cc1cn([C@H]2C=C[C@@H](CO)O2)c(=O)[nH]c1=O [STAVUDINE] | > 30 | > 30 | > 30 | > 10 | AC50 [5]: > 30 µM |
| COC(c1ccccc1)(c1ccccc1)[C@H](Oc1nc(C)cc(C)n1)C(=O)O [AMBRISENTAN] | > 30 |  |  |  |  |
| CN(C)CCN1C(=O)c2ccccc2N(C)c2ccccc21 [DIBENZEPIN] | > 30 |  |  |  |  |
| CC1=C(C(=O)O)N2C(=O)[C@@H](NC(=O)[C@H](N)c3ccccc3)[C@H]2SC1 [CEPHALEXIN ANHYDROUS] |  | > 30 | > 30 | > 10 |  |
| CC(=O)N[C@@H]1[C@@H](O)[C@H](O)[C@@H](CO)O[C@H]1O [N-ACETYLGLUCOSAMINE] | > 30 |  |  |  |  |
| C[C@@H](O)[C@H]1C(=O)N2C(C(=O)O)=C(S[C@@H]3CN[C@H](C(=O)N(C)C)C3)[C@H](C)[C@H]12 [MEROPENEM] |  |  |  |  | AC50 (D(1A) dopamine receptor): > 300 µM; AC50 [2]: > 300 µM; AC50 (Glucocorticoid receptor): > 300 µM; AC50 [5]: > 300 µM |
| CCCCCCOc1nsnc1C1=CCCN(C)C1 [XANOMELINE] | > 30 |  |  |  |  |
| Clc1ccc2nsnc2c1NC1=NCCN1 [TIZANIDINE] |  | > 30 | > 30 | > 10 |  |
| Cc1ccc(-c2cc(C(F)(F)F)nn2-c2ccc(S(N)(=O)=O)cc2)cc1 [CELECOXIB] |  | > 30 | > 30 | > 10 |  |
| CC[C@H]1[C@@H](O)[C@@H]2[C@H](CC[C@]3(C)[C@@H]([C@H](C)CCC(=O)O)CC[C@@H]23)[C@@]2(C)CC[C@@H](O)C[C@@H]12 [OBETICHOLIC ACID] | > 30 |  |  |  |  |

| Compound | AC50 [1] [µM] | AC50 [3] [µM] | AC50 [4] [µM] | AC50 (Histamine H2 receptor) [µM] | further results |
| --- | --- | --- | --- | --- | --- |
| CN(C)CCC(c1ccc(Cl)cc1)c1ccccn1 (stereo unspecified) [CHLORPHENIRAMINE] |  | > 30 | > 30 | 0.412 |  |
| CCC1=C(C)CN(C(=O)NCCc2ccc(S(=O)(=O)NC(=O)N[C@H]3CC[C@H](C)CC3)cc2)C1=O [GLIMEPIRIDE] | > 30 |  |  |  | AC50 (Glucocorticoid receptor): > 30 µM |
| CO[C@H]1C[C@@H]2CC[C@@H](C)[C@@](O)(O2)C(=O)C(=O)N2CCCC[C@H]2C(=O)O[C@H]([C@H](C)C[C@@H]2CC[C@@H](O)[C@H](OC)C2)CC(=O)[C@H](C)/C=C(\C)[C@@H](O)[C@@H](OC)C(=O)[C@H](C)C[C@H](C)/C=C/C=C/C=C/1C [SIROLIMUS] |  | > 30 | > 30 |  |  |
| CC(C)(C)NC[C@H](O)COc1ccccc1C1CCCC1 [PENBUTOLOL] | > 30 |  |  |  |  |
| CC[N+]1(C)[C@@H]2CC(OC(=O)[C@H](CO)c3ccccc3)C[C@H]1[C@@H]1O[C@@H]12 (stereo partly specified) [OXITROPIUM] | > 30 |  |  |  |  |
| C[C@]12CC[C@@H]3c4ccc(O)cc4CC[C@H]3[C@@H]1C[C@@H](O)[C@@H]2O [ESTRIOL] | > 30 |  |  |  |  |
| CCC(C)n1ncn(-c2ccc(N3CCN(c4ccc(OCC5COC(Cn6cncn6)(c6ccc(Cl)cc6Cl)O5)cc4)CC3)cc2)c1=O (stereo unspecified) [ITRACONAZOLE] |  | > 30 | > 30 | > 10 |  |
| CS(=O)(=O)c1ccc(C2=C(c3ccccc3)C(=O)OC2)cc1 [ROFECOXIB] | > 30 | > 30 | > 30 | > 10 |  |
| Cc1cn([C@H]2C[C@H](N=[N+]=[N-])[C@@H](CO)O2)c(=O)[nH]c1=O [ZIDOVUDINE] |  | > 30 | > 30 | > 10 |  |
| CC(C)C[C@H]1C(=O)N2CCC[C@H]2[C@]2(O)O[C@](NC(=O)[C@@H]3C=C4c5cccc6[nH]c(Br)c(c56)C[C@H]4N(C)C3)(C(C)C)C(=O)N12 [BROMOCRIPTINE] |  | > 30 | > 30 | 1.69 | AC50 (D(1A) dopamine receptor): > 30 µM; AC50 [2]: > 30 µM; AC50 (Glucocorticoid receptor): > 30 µM; AC50 [5]: > 30 µM |
| CC[C@H]1OC(=O)[C@H](C)[C@@H](O[C@H]2C[C@@](C)(OC)[C@@H](O)[C@H](C)O2)[C@H](C)[C@@H](O[C@@H]2O[C@H](C)C[C@H](N(C)C)[C@H]2O)[C@](C)(O)C[C@@H](C)CN(C)[C@H](C)[C@@H](O)[C@]1(C)O [AZITHROMYCIN] |  | > 30 | > 30 | > 10 |  |
| COCCCN1CCC(NC(=O)c2cc(Cl)c(N)c3c2OCC3)CC1 [PRUCALOPRIDE] |  |  |  |  | AC50 [2]: > 30 µM; AC50 (Glucocorticoid receptor): > 30 µM |
| CCOC(=O)[C@H](CCc1ccccc1)N[C@@H](C)C(=O)N1[C@H](C(=O)O)C[C@@H]2CCC[C@@H]21 |  | > 30 | > 30 | > 10 |  |
| O=C(O)c1cc(O)ccc1O [GENTISIC ACID] | > 30 |  |  |  |  |
| O=C1Nc2ccc(Cl)cc2[C@@](C#CC2CC2)(C(F)(F)F)O1 [EFAVIRENZ] |  |  |  |  | AC50 (Estrogen receptor): > 30 µM; AC50 (Glucocorticoid receptor): > 30 µM |
| C[C@]12CCC(=O)C=C1CC[C@@H]1[C@@H]2[C@@H](O)C[C@@]2(C)[C@H]1CC[C@]2(O)C(=O)CO [HYDROCORTISONE] |  | > 30 | > 30 | > 10 |  |
| OCCN1C[C@H](O)[C@@H](O)[C@H](O)[C@H]1CO [MIGLITOL] | > 30 |  |  |  |  |
| O=C(Cc1ccc(-c2ccccc2)cc1)Nc1ccccn1 [DIFENPIRAMIDE] |  |  |  |  | AC50 [2]: > 30 µM |
| O=C(CCNNC(=O)c1ccncc1)NCc1ccccc1 [NIALAMIDE] | > 30 |  |  |  |  |
